# Assay results taken from ChEMBL document CHEMBL6134890, “Terminally Symmetric β-Turn Peptides for Multidrug-Resistant Bacterial Infections” (J Med Chem, 2025).
# Peptide text beside a SMILES is read from it.
# Key:
# [1] = system: Escherichia coli; assay: Antimicrobial activity against Escherichia coli ATCC 25922 assessed as reduction in bacterial growth by broth dilution method; assay type: functional
# [2] = system: Staphylococcus epidermidis; assay: Antimicrobial activity against multi-drug resistant Staphylococcus epidermidis assessed as reduction in bacterial growth by broth dilution method; assay type: functional
# [3] = system: Klebsiella pneumoniae; assay: Antimicrobial activity against multi-drug resistant Klebsiella pneumoniae assessed as reduction in bacterial growth by broth dilution method; assay type: functional
# [4] = Hemolytic activity in human Red blood cell assessed as hemolysis incubated for 1 hrs by microplate reader based analysis; assay type: toxicity; conditions: erythrocyte
# [5] = system: Acinetobacter baumannii; assay: Antimicrobial activity against multi-drug resistant Acinetobacter baumannii assessed as reduction in bacterial growth by broth dilution method; assay type: functional
# [6] = system: Enterococcus faecalis; assay: Antimicrobial activity against multi-drug resistant Enterococcus faecalis assessed as reduction in bacterial growth by broth dilution method; assay type: functional
# [7] = system: Staphylococcus aureus; assay: Antimicrobial activity against Staphylococcus aureus ATCC 25923 assessed as reduction in bacterial growth by broth dilution method; assay type: functional
# [8] = system: Escherichia coli; assay: Antimicrobial activity against multi-drug resistant Escherichia coli assessed as reduction in bacterial growth by broth dilution method; assay type: functional
# [9] = system: Staphylococcus aureus; assay: Antimicrobial activity against multi-drug resistant Staphylococcus aureus assessed as reduction in bacterial growth by broth dilution method; assay type: functional
smiles,measurement,setting,value
CC[C@H](C)[C@H](N)C(=O)N[C@@H](CCCCN)C(=O)N[C@H](C(=O)N[C@@H](CCCCN)C(=O)N1CCC[C@H]1C(=O)N[C@@H](Cc1c[nH]c2ccccc12)C(=O)N[C@@H](Cc1c[nH]c2ccccc12)C(=O)N[C@@H](Cc1c[nH]c2ccccc12)C(=O)N1CCC[C@H]1C(=O)N[C@@H](CCCCN)C(=O)N[C@H](C(=O)N[C@@H](CCCCN)C(=O)N[C@H](C(N)=O)[C@@H](C)CC)[C@@H](C)CC)[C@@H](C)CC (H-IKIKPWWWPKIKI-NH2),MIC,[1],16 µM
same,MIC,[2],16 µM
same,MIC,[3],64 µM
same,HC10,[4],> 256 µM
same,MIC,[5],16 µM
same,MIC,[6],16 µM
same,MIC,[7],8 µM
same,MIC,[8],16 µM
same,MIC,[9],8 µM
NCCCC[C@H](NC(=O)[C@H](Cc1ccccc1)NC(=O)[C@H](CCCCN)NC(=O)[C@H](Cc1ccccc1)NC(=O)[C@H](CCCCN)NC(=O)[C@H](Cc1ccccc1)NC(=O)[C@@H]1CCCN1C(=O)[C@H](Cc1c[nH]c2ccccc12)NC(=O)[C@H](Cc1c[nH]c2ccccc12)NC(=O)[C@H](Cc1c[nH]c2ccccc12)NC(=O)[C@@H]1CCCN1C(=O)[C@H](Cc1ccccc1)NC(=O)[C@H](CCCCN)NC(=O)[C@H](Cc1ccccc1)NC(=O)[C@H](CCCCN)NC(=O)[C@H](Cc1ccccc1)NC(=O)[C@@H](N)CCCCN)C(N)=O (H-KFKFKFPWWWPFKFKFK-NH2),MIC,[1],8 µM
same,MIC,[2],4 µM
same,MIC,[3],16 µM
same,HC10,[4],6.39 µM
same,MIC,[5],4 µM
same,MIC,[6],4 µM
same,MIC,[7],8 µM
same,MIC,[8],8 µM
same,MIC,[9],8 µM
CC[C@H](C)[C@H](NC(=O)[C@H](CCCCN)NC(=O)[C@@H](NC(=O)[C@H](Cc1ccccc1)NC(=O)[C@@H]1CCCN1C(=O)[C@H](Cc1c[nH]c2ccccc12)NC(=O)[C@H](Cc1c[nH]c2ccccc12)NC(=O)[C@H](Cc1c[nH]c2ccccc12)NC(=O)[C@@H]1CCCN1C(=O)[C@H](Cc1ccccc1)NC(=O)[C@@H](NC(=O)[C@H](CCCCN)NC(=O)[C@@H](NC(=O)[C@@H](N)CCCCN)[C@@H](C)CC)[C@@H](C)CC)[C@@H](C)CC)C(=O)N[C@@H](CCCCN)C(N)=O (H-KIKIFPWWWPFIKIK-NH2),MIC,[1],8 µM
same,MIC,[2],8 µM
same,MIC,[3],256 µM
same,HC10,[4],4.32 µM
same,MIC,[5],8 µM
same,MIC,[6],16 µM
same,MIC,[7],8 µM
same,MIC,[8],16 µM
same,MIC,[9],8 µM
CC[C@H](C)[C@H](NC(=O)[C@H](CCCCN)NC(=O)[C@@H](NC(=O)[C@H](CCCCN)NC(=O)[C@H](Cc1ccccc1)NC(=O)[C@@H]1CCCN1C(=O)[C@H](Cc1c[nH]c2ccccc12)NC(=O)[C@H](Cc1c[nH]c2ccccc12)NC(=O)[C@H](Cc1c[nH]c2ccccc12)NC(=O)[C@@H]1CCCN1C(=O)[C@H](Cc1ccccc1)NC(=O)[C@H](CCCCN)NC(=O)[C@@H](NC(=O)[C@H](CCCCN)NC(=O)[C@@H](NC(=O)[C@@H](N)CCCCN)[C@@H](C)CC)[C@@H](C)CC)[C@@H](C)CC)C(=O)N[C@@H](CCCCN)C(N)=O (H-KIKIKFPWWWPFKIKIK-NH2),MIC,[1],16 µM
same,MIC,[2],8 µM
same,MIC,[3],32 µM
same,HC10,[4],29.44 µM
same,MIC,[5],8 µM
same,MIC,[6],4 µM
same,MIC,[7],4 µM
same,MIC,[8],8 µM
same,MIC,[9],4 µM
CC[C@H](C)[C@H](NC(=O)[C@H](CCCCN)NC(=O)[C@@H](NC(=O)[C@H](CCCCN)NC(=O)[C@@H](NC(=O)[C@H](Cc1ccccc1)NC(=O)[C@@H]1CCCN1C(=O)[C@H](Cc1c[nH]c2ccccc12)NC(=O)[C@H](Cc1c[nH]c2ccccc12)NC(=O)[C@H](Cc1c[nH]c2ccccc12)NC(=O)[C@@H]1CCCN1C(=O)[C@H](Cc1ccccc1)NC(=O)[C@@H](NC(=O)[C@H](CCCCN)NC(=O)[C@@H](NC(=O)[C@H](CCCCN)NC(=O)[C@@H](NC(=O)[C@@H](N)CCCCN)[C@@H](C)CC)[C@@H](C)CC)[C@@H](C)CC)[C@@H](C)CC)[C@@H](C)CC)C(=O)N[C@@H](CCCCN)C(N)=O (H-KIKIKIFPWWWPFIKIKIK-NH2),MIC,[1],128 µM
same,MIC,[2],128 µM
same,MIC,[3],64 µM
same,HC10,[4],7.28 µM
same,MIC,[5],128 µM
same,MIC,[6],64 µM
same,MIC,[7],128 µM
same,MIC,[8],128 µM
same,MIC,[9],128 µM
CC[C@H](C)[C@H](NC(=O)[C@H](CCCCN)NC(=O)[C@@H](NC(=O)[C@H](CCCCN)NC(=O)[C@@H](NC(=O)[C@@H]1CCCN1C(=O)[C@H](Cc1c[nH]c2ccccc12)NC(=O)[C@H](Cc1c[nH]c2ccccc12)NC(=O)[C@H](Cc1c[nH]c2ccccc12)NC(=O)[C@@H]1CCCN1C(=O)[C@@H](NC(=O)[C@H](CCCCN)NC(=O)[C@@H](NC(=O)[C@H](CCCCN)NC(=O)[C@@H](NC(=O)[C@@H](N)CCCCN)[C@@H](C)CC)[C@@H](C)CC)[C@@H](C)CC)[C@@H](C)CC)[C@@H](C)CC)C(=O)N[C@@H](CCCCN)C(N)=O (H-KIKIKIPWWWPIKIKIK-NH2),MIC,[1],16 µM
same,MIC,[2],8 µM
same,MIC,[3],16 µM
same,HC10,[4],33.38 µM
same,MIC,[5],64 µM
same,MIC,[6],8 µM
same,MIC,[7],4 µM
same,MIC,[8],16 µM
same,MIC,[9],8 µM
CC[C@H](C)[C@H](NC(=O)[C@H](CCCCN)NC(=O)[C@@H](NC(=O)[C@@H]1CCCN1C(=O)[C@H](Cc1c[nH]c2ccccc12)NC(=O)[C@H](Cc1c[nH]c2ccccc12)NC(=O)[C@H](Cc1c[nH]c2ccccc12)NC(=O)[C@@H]1CCCN1C(=O)[C@@H](NC(=O)[C@H](CCCCN)NC(=O)[C@@H](NC(=O)[C@@H](N)CCCCN)[C@@H](C)CC)[C@@H](C)CC)[C@@H](C)CC)C(=O)N[C@@H](CCCCN)C(N)=O (H-KIKIPWWWPIKIK-NH2),MIC,[1],8 µM
same,MIC,[2],16 µM
same,MIC,[3],32 µM
same,HC10,[4],> 256 µM
same,MIC,[5],16 µM
same,MIC,[6],8 µM
same,MIC,[7],4 µM
same,MIC,[8],8 µM
same,MIC,[9],4 µM
CC(C)C[C@H](NC(=O)[C@H](CCCCN)NC(=O)[C@H](CC(C)C)NC(=O)[C@H](CCCCN)NC(=O)[C@H](Cc1ccccc1)NC(=O)[C@@H]1CCCN1C(=O)[C@H](Cc1c[nH]c2ccccc12)NC(=O)[C@H](Cc1c[nH]c2ccccc12)NC(=O)[C@H](Cc1c[nH]c2ccccc12)NC(=O)[C@@H]1CCCN1C(=O)[C@H](Cc1ccccc1)NC(=O)[C@H](CCCCN)NC(=O)[C@H](CC(C)C)NC(=O)[C@H](CCCCN)NC(=O)[C@H](CC(C)C)NC(=O)[C@@H](N)CCCCN)C(=O)N[C@@H](CCCCN)C(N)=O (H-KLKLKFPWWWPFKLKLK-NH2),MIC,[1],8 µM
same,MIC,[2],4 µM
same,MIC,[3],8 µM
same,HC10,[4],38.84 µM
same,MIC,[5],8 µM
same,MIC,[6],8 µM
same,MIC,[7],8 µM
same,MIC,[8],8 µM
same,MIC,[9],4 µM
CC(C)[C@H](NC(=O)[C@H](CCCCN)NC(=O)[C@@H](NC(=O)[C@H](CCCCN)NC(=O)[C@@H]1CCCN1C(=O)[C@H](Cc1c[nH]c2ccccc12)NC(=O)[C@H](Cc1c[nH]c2ccccc12)NC(=O)[C@H](Cc1c[nH]c2ccccc12)NC(=O)[C@@H]1CCCN1C(=O)[C@H](CCCCN)NC(=O)[C@@H](NC(=O)[C@H](CCCCN)NC(=O)[C@@H](NC(=O)[C@@H](N)CCCCN)C(C)C)C(C)C)C(C)C)C(=O)N[C@@H](CCCCN)C(N)=O (H-KVKVKPWWWPKVKVK-NH2),MIC,[1],32 µM
same,MIC,[2],32 µM
same,MIC,[3],32 µM
same,HC10,[4],> 256 µM
same,MIC,[5],64 µM
same,MIC,[6],32 µM
same,MIC,[7],64 µM
same,MIC,[8],32 µM
same,MIC,[9],64 µM
NCCCC[C@H](NC(=O)[C@H](Cc1c[nH]c2ccccc12)NC(=O)[C@H](CCCCN)NC(=O)[C@H](Cc1c[nH]c2ccccc12)NC(=O)[C@H](Cc1ccccc1)NC(=O)[C@@H]1CCCN1C(=O)[C@H](Cc1c[nH]c2ccccc12)NC(=O)[C@H](Cc1c[nH]c2ccccc12)NC(=O)[C@H](Cc1c[nH]c2ccccc12)NC(=O)[C@@H]1CCCN1C(=O)[C@H](Cc1ccccc1)NC(=O)[C@H](Cc1c[nH]c2ccccc12)NC(=O)[C@H](CCCCN)NC(=O)[C@H](Cc1c[nH]c2ccccc12)NC(=O)[C@@H](N)CCCCN)C(N)=O (H-KWKWFPWWWPFWKWK-NH2),MIC,[1],32 µM
same,MIC,[2],16 µM
same,MIC,[3],256 µM
same,HC10,[4],7.46 µM
same,MIC,[5],64 µM
same,MIC,[6],16 µM
same,MIC,[7],4 µM
same,MIC,[8],64 µM
same,MIC,[9],4 µM
